Drawing on patent US20240228458A1, “PYRIMIDINE DERIVATIVE HAVING PROTEIN KINASE INHIBITORY ACTIVITY, AND THERAPEUTIC PHARMACEUTICAL COMPOSITION COMPRISING SAME” (THERAPEX CO., LTD., priority 2021, published 2024), this text covers GI50 for four compounds.

Common to all, as to format: cell-based
Assay [1] relates to Ba/F3 cells expressing EGFR-wt. Kind of assay: Growth inhibition (GI50) of Ba/F3 cells expressing EGFR-wt, Celltiter glo. A digest of the protocol:
(§1)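 Viable-cell luminescence (CellTiter-Glo) after 72 h compound exposure at 37 °C, 5% CO2 gave GI50 (μM, 50% growth inhibition). Compounds were 4-fold serial dilutions, 10 points, from a 2 mM stock, 0.5% DMSO, added 4 h after plating EGFR-variant Ba/F3 cells at 100,000 cells/ml.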

Assay [2] has as its system Ba/F3 cells expressing del19/T790M/C797S (EGFR-DTC). Kind of assay: Growth inhibition (GI50) of Ba/F3 cells expressing del19/T790M/C797S (EGFR-DTC), Celltiter glo. The method, boiled down: as §1
A general note: In ATP-based viability assays light output follows the ATP content of the culture.

The subject of assay [3] is Ba/F3 cells expressing L858R/T790M/C797S (EGFR-LTC). Kind of assay: Growth inhibition (GI50) of Ba/F3 cells expressing L858R/T790M/C797S (EGFR-LTC), Celltiter glo. A digest of the protocol:
as §1

Assay [4] has as its system Ba/F3 cells expressing del19/T790M (EGFR-DT). Kind of assay: Growth inhibition (GI50) of Ba/F3 cells expressing del19/T790M (EGFR-DT), Celltiter glo. The method, boiled down: as §1
For assay [5], the system named is Ba/F3 cells expressing L858R/T790M (EGFR-LT). Kind of assay: Growth inhibition (GI50) of Ba/F3 cells expressing L858R/T790M (EGFR-LT), Celltiter glo. A digest of the protocol:
as §1

Another assay has as its system parental Ba/F3 cell line. Kind of assay: Growth inhibition (GI50) of the parental Ba/F3 cell line (not introduced with EGFR variants), Celltiter glo. The following applies: parental Ba/F3 cells. A digest of the protocol: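 Parental Ba/F3 cells (100,000 cells/ml) were treated with 10-point, 4-fold compound dilutions (0.5% DMSO; top stock 2 mM) for 72 h at 37 °C, 5% CO2. Viability was read by CellTiter-Glo; GI50 is the concentration (μM) giving 50% growth inhibition.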

As a reminder, the GI50 is the concentration at which growth is held to half of that of the control. Take `COc1cc(N2CCC(N3CCCC(N(C)C)C3)CC2)c(Br)cc1Nc1ncc(Br)c(Nc2cc3c(cc2NS(C)(=O)=O)CCO3)n1` (stereo not drawn) [Example 281, N-(6-((5-bromo-2-((5-bromo-4-(3-(dimethylamino)-[1,4′-bipiperidin]-1′-yl)-2-methoxyphenyl)amino)pyrimidin-4-yl)amino)-2,3-dihydrobenzofuran-5-yl)methanesulfonamide]: the GI50 was in the range of 100 to 500 nM in assay [1] (Mus musculus, BaF3, 72 h); 25 to 100 nM in assay [2] (Mus musculus, BaF3, 72 h); 1 to 25 nM in assay [3] (Mus musculus, BaF3, 72 h); 1 to 25 nM in assay [4] (Mus musculus, BaF3, 72 h); 1 to 25 nM in assay [5] (Mus musculus, BaF3, 72 h); 100 to 500 nM in the assay on parental Ba/F3 cell line (Mus musculus, BaF3, 72 h).
As to `COc1cc(N2CCC(N3CCCN(C)CC3)CC2)c(Br)cc1Nc1ncc(Cl)c(Nc2cc3c(cc2NS(C)(=O)=O)CCO3)n1` [Example 282, N-(6-((2-((5-bromo-2-methoxy-4-(4-(4-methyl-1,4-diazepan-1-yl)piperidin-1-yl)phenyl)amino)-5-chloropyrimidin-4-yl)amino)-2,3-dihydrobenzofuran-5-yl)methanesulfonamide], the GI50 was 100 to 500 nM in assay [1] (Mus musculus, BaF3, 72 h); 100 to 500 nM in assay [2] (Mus musculus, BaF3, 72 h); 25 to 100 nM in assay [3] (Mus musculus, BaF3, 72 h); 1 to 25 nM in assay [4] (Mus musculus, BaF3, 72 h); 1 to 25 nM in assay [5] (Mus musculus, BaF3, 72 h); 2000 to 10000 nM in the assay with parental Ba/F3 cell line (Mus musculus, BaF3, 72 h).
For `COc1cc(N2CCC(N3CCC(N(C)C)C3)CC2)c(Br)cc1Nc1ncc(Cl)c(Nc2cc3c(cc2NS(C)(=O)=O)CCO3)n1` (stereo not drawn) [Example 283, N-(6-((2-((5-bromo-4-(4-(3-(dimethylamino)pyrrolidin-1-yl)piperidin-1-yl)-2-methoxyphenyl)amino)-5-chloropyrimidin-4-yl)amino)-2,3-dihydrobenzofuran-5-yl)methanesulfonamide], the GI50 fell in the range of 100 to 500 nM in assay [1] (Mus musculus, BaF3, 72 h); 100 to 500 nM in assay [2] (Mus musculus, BaF3, 72 h); 25 to 100 nM in assay [3] (Mus musculus, BaF3, 72 h); 1 to 25 nM in assay [4] (Mus musculus, BaF3, 72 h); 1 to 25 nM in assay [5] (Mus musculus, BaF3, 72 h); 2000 to 10000 nM with parental Ba/F3 cell line (Mus musculus, BaF3, 72 h).
Consider `COc1cc(N2CCC(N3CCN(C)CC3)CC2)c(C)cc1Nc1ncc(Br)c(Nc2ccc3nccnc3c2P(C)(C)=O)n1` [TQB-3804], for which the GI50 in assay [1] (72 h) was 500 to 2000 nM; in assay [2] (72 h) it was 25 to 100 nM; in assay [3] (72 h) it was 25 to 100 nM; in assay [4] (72 h), 100 to 500 nM; in assay [5] (72 h), 100 to 500 nM; in the assay on parental Ba/F3 cell line (72 h), 500 to 2000 nM.
